Legend:
Test in all cases: relative viability (nuclei count vs DMSO), 5 days (fraction); higher = more cells survive
Zosuquidar + Tozasertib = compound: O[C@@H](COc1cccc2ncccc12)CN1CCN([C@@H]2c3ccccc3[C@@H]3[C@H](c4ccccc42)C3(F)F)CC1 [Zosuquidar] + Cc1cc(Nc2cc(N3CCN(C)CC3)nc(Sc3ccc(NC(=O)C4CC4)cc3)n2)n[nH]1 [Tozasertib] (partner 0.1 µM)
How it was run: (§1)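 Lung cancer cell lines, seeded in 1536-well plates, were treated the following day by pin tool with a single drug or with five library-drug doses (not always all listed) in √10 steps on top of a fixed anchor-drug dose. Cells were fixed and nuclei stained in one step after 5 days, and nuclei were counted. Relative viability is the nuclei count for treated wells divided by that for vehicle wells, reported as medians of duplicate plates.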

[1] = compound: COc1cc2nccc(Oc3ccc(NC(=O)C4(C(=O)Nc5ccc(F)cc5)CC4)cc3)c2cc1OC [Cabozantinib] + Nc1nc2[nH]cc(CCc3ccc(C(=O)N[C@@H](CCC(=O)O)C(=O)O)cc3)c2c(=O)[nH]1 [Pemetrexed] (partner 0.2 µM)
How it was run: as §1

Zosuquidar + Decitabine = compound: O[C@@H](COc1cccc2ncccc12)CN1CCN([C@@H]2c3ccccc3[C@@H]3[C@H](c4ccccc42)C3(F)F)CC1 [Zosuquidar] + Nc1ncn([C@H]2C[C@H](O)[C@@H](CO)O2)c(=O)n1 [Decitabine] (partner 2 µM)
How it was run: as §1

Kobe2602 + Foretinib = compound: C1=CC(=CC=C1NC(=S)NNC2=C(C=C(C=C2[N+](=O)[O-])C(F)(F)F)[N+](=O)[O-])F [Kobe2602] + COc1cc2c(Oc3ccc(NC(=O)C4(C(=O)Nc5ccc(F)cc5)CC4)cc3F)ccnc2cc1OCCCN1CCOCC1 [Foretinib] (partner 0.25 µM)
How it was run: as §1

| Cell Line | relative viability (Zosuquidar + Tozasertib; first compound 0.01 µM) | relative viability (Zosuquidar + Tozasertib; first compound 0.03162 µM) | relative viability (Zosuquidar + Tozasertib; first compound 0.1 µM) | relative viability (Zosuquidar + Tozasertib; first compound 0.3162 µM) | relative viability (Zosuquidar + Tozasertib; first compound 1 µM) | relative viability ([1]; first compound 0.02 µM) | relative viability ([1]; first compound 0.06325 µM) | relative viability ([1]; first compound 0.6325 µM) | relative viability ([1]; first compound 2 µM) | relative viability (Zosuquidar + Decitabine; first compound 0.01 µM) | relative viability (Zosuquidar + Decitabine; first compound 0.03162 µM) | relative viability (Zosuquidar + Decitabine; first compound 0.1 µM) | relative viability (Zosuquidar + Decitabine; first compound 0.3162 µM) | relative viability (Zosuquidar + Decitabine; first compound 1 µM) | relative viability (Kobe2602 + Foretinib; first compound 0.2 µM) | relative viability (Kobe2602 + Foretinib; first compound 0.6325 µM) | relative viability (Kobe2602 + Foretinib; first compound 2 µM) | relative viability (Kobe2602 + Foretinib; first compound 6.325 µM) | relative viability (Kobe2602 + Foretinib; first compound 20 µM) | relative viability ([1]; first compound 0.2 µM) |
| --- | --- | --- | --- | --- | --- | --- | --- | --- | --- | --- | --- | --- | --- | --- | --- | --- | --- | --- | --- | --- |
| PC-14 | 0.551 | 0.602 | 0.629 | 0.519 | 0.57 | 0.113 | 0.141 | 0.126 | 0.129 | 0.224 | 0.176 | 0.212 | 0.195 | 0.205 | 0.962 | 0.968 | 0.922 | 0.939 | 0.911 | – |
| NCI-H2023 | 0.335 | 0.426 | 0.407 | 0.398 | 0.314 | 0.199 | 0.272 | 0.23 | 0.146 | 0.195 | 0.281 | 0.235 | 0.246 | 0.268 | 0.931 | 0.803 | 0.825 | 0.931 | 0.933 | 0.175 |
| ChaGo-K-1 | 0.227 | 0.217 | 0.261 | 0.204 | 0.227 | 0.261 | 0.261 | 0.26 | 0.263 | 0.552 | 0.448 | 0.534 | 0.536 | 0.477 | 0.971 | 1.03 | 0.865 | 0.954 | 0.838 | 0.255 |
| COR-L23 | 0.196 | 0.224 | 0.188 | 0.215 | 0.187 | 0.215 | 0.197 | 0.185 | 0.193 | 0.501 | 0.421 | 0.511 | 0.469 | 0.468 | 0.902 | 0.972 | 0.966 | 0.96 | 0.951 | 0.191 |
| EMC-BAC-2 | 0.278 | 0.33 | 0.285 | 0.274 | 0.261 | 0.47 | 0.456 | 0.456 | 0.449 | 0.915 | 0.991 | 0.9 | 1.14 | 0.964 | 0.938 | 1.03 | 0.99 | 1.04 | 1.02 | 0.529 |
| LCLC-103H | 0.388 | 0.462 | 0.445 | 0.462 | 0.496 | 0.45 | 0.451 | 0.527 | 0.465 | 0.803 | 0.724 | 0.787 | 0.739 | 0.772 | 0.82 | 0.905 | 0.751 | 0.832 | 0.723 | 0.459 |
| NCI-H1395 | 0.729 | 0.893 | 0.804 | 0.81 | 0.755 | 0.699 | 1.03 | 0.714 | 0.824 | 0.707 | 0.765 | – | 0.765 | 0.773 | 0.935 | 0.976 | 0.976 | 0.991 | 1.12 | 0.924 |
| NCI-H23 | 0.393 | 0.629 | 0.537 | 0.34 | 0.362 | – | 0.819 | 0.655 | 0.476 | 0.29 | – | 0.306 | 0.302 | 0.324 | 1.02 | 0.977 | 0.896 | 1.12 | 1 | 0.471 |
| NCI-H322M | 0.461 | 0.54 | 0.383 | 0.445 | 0.519 | 0.614 | 0.744 | 0.628 | 0.613 | 0.598 | 0.548 | 0.666 | 0.632 | 0.625 | 0.971 | 0.98 | 0.923 | 0.959 | 0.963 | 0.578 |
| NCI-H2126 | 0.815 | 0.861 | – | 0.918 | 0.796 | 0.59 | 0.666 | 0.658 | 0.704 | 0.571 | 0.592 | 0.624 | 0.627 | 0.538 | 1.17 | 1.25 | 1.07 | 0.996 | 1.01 | 0.689 |
| NCI-H647 | 0.26 | 0.266 | 0.564 | 0.228 | 0.284 | 0.165 | 0.192 | 0.149 | 0.133 | 0.396 | 0.444 | 0.429 | 0.378 | 0.318 | 1.13 | 1.29 | 1.16 | 1.17 | 1.12 | 0.162 |
| LU99A | 0.215 | 0.229 | 0.257 | 0.254 | 0.271 | 0.18 | 0.199 | 0.173 | 0.229 | 0.835 | 1.09 | 0.946 | 0.917 | 1.04 | 0.803 | 0.874 | 0.806 | 0.822 | 0.769 | 0.216 |
| NCI-H1666 | 0.596 | 0.62 | 0.666 | 0.587 | 0.592 | 0.9 | 0.902 | 0.899 | 0.875 | 0.766 | 0.788 | 0.671 | 0.789 | 0.678 | 0.961 | 0.952 | 0.973 | 0.963 | 1.04 | 0.873 |
| NCI-H596 | 0.877 | – | 0.986 | 1.16 | 0.905 | 0.485 | 0.525 | 0.52 | 0.54 | 1.02 | 0.961 | 1.03 | 1.13 | 0.879 | 0.851 | 0.708 | 0.957 | 0.915 | 0.846 | 0.487 |

Reference: the supplement of paper PMC10307832
